This is an account of results in patent publication US12338253B2, “Nitrogen-containing polycyclic fused ring compound, pharmaceutical composition thereof, preparation method therefor and use thereof” (APPLIED PHARMACEUTICAL SCIENCE, INC., priority 2019, dated 2025).

For one test, the target named is RET wt (Homo sapiens (Human), UniProt P07949). Description: HTRF kinase activity test, RET wt. It counts as biochemical. The conditions noted are these: for IC50: HTRF KinEASE-TK; for inhibitory activity on RET wt compared with cabozantinib: comparison in words. In general terms: Time-resolved FRET reads energy transfer from a long-lived donor to a nearby acceptor.

A further test concerns the target RET V804M (Homo sapiens (Human), UniProt P07949, V804M). The experiment in a line: HTRF kinase activity test, RET V804M. In kind it is biochemical. The conditions noted are these: for IC50: HTRF KinEASE-TK; for inhibitory activity on RET V804M compared with cabozantinib: comparison in words.
For the next test, the system named is TT Cell. The experiment in a line: TT cell activity test (CelltiterGlo, 72 h). In kind it is cell-based, human. The conditions noted are these: for IC50: Homo sapiens, TT cell line, 72 h, CTG; for inhibitory activity on TT cells compared with cabozantinib: comparison in words. The procedure: 2.3 Data Processing % Inhibition (inhibition rate)=100*(HC−test compound well reading)/(HC−LC) • High control (HC, reading control without inhibition): 0.5% DMSO • Low control (LC, control with compound inhibition): 1 μM CEP-32496
The IC50 values were calculated using GraphPad Prism 6 software. Y=Bottom+(Top−Bottom)/(1+10^((Log IC50−X)*HillSlope)); • X: log of cpd concentration; • Y: % inhibition; • Top and Bottom: plateaus in same units as Y; • Log IC50: same log units as X; and • HillSlope: slope factor The Cell Results are Shown in Table 5: […]

Another test deals with RET G810R (Homo sapiens (Human), UniProt P07949, G810R). Description: HTRF kinase activity test, RET G810R. In kind it is biochemical. Particulars: for IC50: HTRF KinEASE-TK; for inhibitory activity on RET G810R compared with cabozantinib and selpercatinib (LOXO-292): comparison in words.
For test [1], the system named is Ba/F3 cell KIF5B-RET-V804M fusion xenograft model. Description: Pharmacodynamic test on Ba/F3 cell KIF5B-RET-V804M fusion xenograft model. It counts as in vivo, BALB/c nude mice. Particulars: 10 mg/kg, oral, twice a day; end of the control experiment (day 8 of the administration).

Chain of RET wt (P07949 29-1114): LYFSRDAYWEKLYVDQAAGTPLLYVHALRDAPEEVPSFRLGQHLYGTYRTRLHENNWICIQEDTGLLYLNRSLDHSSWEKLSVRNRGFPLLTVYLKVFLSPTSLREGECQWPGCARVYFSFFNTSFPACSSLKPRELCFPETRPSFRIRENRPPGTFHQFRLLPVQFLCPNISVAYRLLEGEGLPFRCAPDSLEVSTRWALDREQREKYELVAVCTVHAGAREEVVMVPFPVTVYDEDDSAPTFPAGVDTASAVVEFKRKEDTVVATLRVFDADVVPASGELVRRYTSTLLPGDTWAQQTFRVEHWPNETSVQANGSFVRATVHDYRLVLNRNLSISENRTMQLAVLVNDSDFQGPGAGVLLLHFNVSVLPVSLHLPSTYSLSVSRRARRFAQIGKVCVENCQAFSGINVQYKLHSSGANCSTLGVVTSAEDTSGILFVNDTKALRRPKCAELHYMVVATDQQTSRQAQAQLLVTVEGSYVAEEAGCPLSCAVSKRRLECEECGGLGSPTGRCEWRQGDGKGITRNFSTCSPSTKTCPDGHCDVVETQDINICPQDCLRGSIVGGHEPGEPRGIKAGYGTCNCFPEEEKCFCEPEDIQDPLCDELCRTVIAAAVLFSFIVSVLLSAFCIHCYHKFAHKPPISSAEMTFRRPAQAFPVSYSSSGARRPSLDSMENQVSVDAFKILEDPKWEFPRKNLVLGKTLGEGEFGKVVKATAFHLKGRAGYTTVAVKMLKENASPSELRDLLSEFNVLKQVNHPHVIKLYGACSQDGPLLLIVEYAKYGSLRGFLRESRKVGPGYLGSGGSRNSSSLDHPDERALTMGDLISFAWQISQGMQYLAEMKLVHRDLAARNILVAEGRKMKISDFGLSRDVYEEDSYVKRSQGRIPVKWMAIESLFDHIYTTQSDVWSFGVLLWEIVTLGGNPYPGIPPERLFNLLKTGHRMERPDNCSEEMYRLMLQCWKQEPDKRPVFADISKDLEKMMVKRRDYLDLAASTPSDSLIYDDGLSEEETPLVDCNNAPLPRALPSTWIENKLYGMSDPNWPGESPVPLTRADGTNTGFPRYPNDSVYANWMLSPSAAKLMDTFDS
Chain of RET G810R (P07949 29-1114 G810R): as the sequence (P07949 29-1114) above, with G782R counted along it
Chain of RET V804M (P07949 29-1114 V804M): as the sequence (P07949 29-1114) above, with V776M counted along it

As for `COCCOc1cc(-c2ccc(N3CC4CC(C3)N4Cc3ccc(OC)nc3)nc2)c2c3c(N)n[nH]c3nn2c1` [Compound 1, 6-(2-methoxyethoxy)-4-(6-(6-((6-methoxypyridin-3-yl)methyl)-3,6-diazabicyclo[3.3.1]heptan-3-yl)pyridin-3-yl)-1H-pyrazolo[3′,4′:3,4]pyrazolo[1,5-a]pyridin-3-amine], on RET wt, the IC50 is 4.1 nM and the “inhibitory activity on RET wt compared with cabozantinib” value is listed as “significantly better than that of cabozantinib”. At RET V804M, the IC50 was determined as 2.9 nM and the “inhibitory activity on RET V804M compared with cabozantinib” value is reported as “significantly better than that of cabozantinib”. In the test with TT Cell, the IC50 was determined as 319 nM.
Regarding `COCCOc1cc(-c2ccc(N3CC4CC(C3)N4Cc3ccc(OC)nc3)nc2)c2c3cn[nH]c3nn2c1` [Compound 7, 6-(2-methoxyethoxy)-4-(6-(6-((6-methoxypyridin-3-yl)methyl)-3,6-diazabicyclo[3.3.1]heptan-3-yl)pyridin-3-yl)-1H-pyrazolo[3′,4′:3,4]pyrazolo[1,5-a]pyridine], on RET wt, the IC50 turned out to be 0.1 nM and the “inhibitory activity on RET wt compared with cabozantinib” value was “significantly better than that of cabozantinib”. In addition, at RET V804M, the IC50 came to 0.1 nM and the “inhibitory activity on RET V804M compared with cabozantinib” value is “significantly better than that of cabozantinib”. In addition, on RET G810R, the midpoint of inhibition, the IC50, lay at 2.7 nM; the “inhibitory activity on RET G810R compared with cabozantinib and selpercatinib (LOXO-292)” value is “significantly better than that of cabozantinib and selpercatinib (LOXO-292)”. Also, in the test with TT Cell, inhibition was half-maximal at 2.5 nM (IC50) and the “inhibitory activity on TT cells compared with cabozantinib” value was “significantly better than that of cabozantinib”.
For `COc1ccc(CN2C3CC2CN(c2ccc(-c4cc(OCCCF)cn5nc6[nH]ncc6c45)cn2)C3)cn1` [Compound 12, 6-(3-fluoropropoxy)-4-(6-(6-((6-methoxypyridin-3-yl)methyl)-3,6-diazabicyclo[3.3.1]heptan-3-yl)pyridin-3-yl)-1H-pyrazolo[3′,4′:3,4]pyrazolo[1,5-a]pyridine], at RET wt, the IC50 was determined as 0.1 nM and the “inhibitory activity on RET wt compared with cabozantinib” value is on record as “significantly better than that of cabozantinib”. Also, on RET V804M, the IC50 amounted to 0.1 nM and the “inhibitory activity on RET V804M compared with cabozantinib” value is recorded as “significantly better than that of cabozantinib”. On RET G810R, the IC50 came out at 3.9 nM; the “inhibitory activity on RET G810R compared with cabozantinib and selpercatinib (LOXO-292)” value was “significantly better than that of cabozantinib and selpercatinib (LOXO-292)”. Further, in the test on TT Cell, the IC50 is 1.5 nM and the “inhibitory activity on TT cells compared with cabozantinib” value is recorded as “significantly better than that of cabozantinib”.
As for `COc1ccc(CN2C3CC2CN(c2cnc(-c4cc(OCCF)cn5nc6[nH]ncc6c45)cn2)C3)cn1` [Compound 16, 6-(2-fluoroethoxy)-4-(5-(6-((6-methoxypyridin-3-yl)methyl)-3,6-diazabicyclo[3.3.1]heptan-3-yl)pyrazin-2-yl)-1H-pyrazolo[3′,4′:3,4]pyrazolo[1,5-a]pyridine], at RET V804M, the IC50 is 0.1 nM and the “inhibitory activity on RET V804M compared with cabozantinib” value was “significantly better than that of cabozantinib”. In addition, at RET G810R, 2.9 nM corresponded to half-maximal inhibition (IC50); the “inhibitory activity on RET G810R compared with cabozantinib and selpercatinib (LOXO-292)” value is “significantly better than that of cabozantinib and selpercatinib (LOXO-292)”. Further, in the test on TT Cell, the IC50 was found to be 12.8 nM and the “inhibitory activity on TT cells compared with cabozantinib” value is on record as “significantly better than that of cabozantinib”.
On to `COc1ccc(C(=O)N2C3CC2CN(c2ccc(-c4cc(OCCF)cn5nc6[nH]ncc6c45)cn2)C3)cn1` [Compound 23, (3-(5-(6-(2-fluoroethoxy)-1H-pyrazolo[3′,4′:3,4]pyrazolo[1,5-a]pyridin-4-yl)pyridin-2-yl)-3,6-diazabicyclo[3.3.1]heptan-6-yl)(6-methoxypyridin-3-yl)methanone], for which, on RET V804M, the IC50 came out at 0.1 nM and the “inhibitory activity on RET V804M compared with cabozantinib” value was “significantly better than that of cabozantinib”. Besides, in the test on TT Cell, the IC50 was found to be 7.9 nM and the “inhibitory activity on TT cells compared with cabozantinib” value was “significantly better than that of cabozantinib”.
Consider `COc1ccc(CN2C3CC2CN(c2ccc(-c4cc(OCCOC(F)F)cn5nc6[nH]ncc6c45)cn2)C3)cn1` [Compound 27, 6-(2-(difluoromethoxy)ethoxy)-4-(6-(6-((6-methoxypyridin-3-yl)methyl)-3,6-diazabicyclo[3.3.1]heptan-3-yl)pyridin-3-yl)-1H-pyrazolo[3′,4′:3,4]pyrazolo[1,5-a]pyridine], for which, on RET wt, inhibition was half-maximal at 0.1 nM (IC50) and the “inhibitory activity on RET wt compared with cabozantinib” value is on record as “significantly better than that of cabozantinib”. Further, at RET V804M, inhibition was half-maximal at 0.1 nM (IC50) and the “inhibitory activity on RET V804M compared with cabozantinib” value is given as “significantly better than that of cabozantinib”. Also, at RET G810R, half-maximal inhibition (IC50) was put at 4.8 nM; the “inhibitory activity on RET G810R compared with cabozantinib and selpercatinib (LOXO-292)” value was “significantly better than that of cabozantinib and selpercatinib (LOXO-292)”. In the test with TT Cell, the IC50 is 27.9 nM and the “inhibitory activity on TT cells compared with cabozantinib” value is on record as “significantly better than that of cabozantinib”.
Regarding `COc1cc(-c2ccc(N3CC4CC(C3)N4Cc3ccc(OC)nc3)nc2)c2c3cn[nH]c3nn2c1` [Compound 36, 6-methoxy-4-(6-(6-((6-methoxypyridin-3-yl)methyl)-3,6-diazabicyclo[3.3.1]heptan-3-yl)pyridin-3-yl)-1H-pyrazolo[3′,4′:3,4]pyrazolo[1,5-a]pyridine], on RET wt, the IC50 is 0.2 nM and the “inhibitory activity on RET wt compared with cabozantinib” value is “significantly better than that of cabozantinib”. Also, on RET V804M, inhibition was half-maximal at 0.1 nM (IC50) and the “inhibitory activity on RET V804M compared with cabozantinib” value is on record as “significantly better than that of cabozantinib”. Further, at RET G810R, the IC50 came to 1.7 nM; the “inhibitory activity on RET G810R compared with cabozantinib and selpercatinib (LOXO-292)” value is “significantly better than that of cabozantinib and selpercatinib (LOXO-292)”. Besides, in the test with TT Cell, the midpoint of inhibition, the IC50, lay at 10.7 nM and the “inhibitory activity on TT cells compared with cabozantinib” value is recorded as “significantly better than that of cabozantinib”.
For the compound `CCCOc1cc(-c2ccc(N3CC4CC(C3)N4Cc3ccc(OC)nc3)nc2)c2c3cn[nH]c3nn2c1` [Compound 38, 4-(6-(6-((6-methoxypyridin-3-yl)methyl)-3,6-diazabicyclo[3.3.1]heptan-3-yl)pyridin-3-yl)-6-propoxy-1H-pyrazolo[3′,4′:3,4]pyrazolo[1,5-a]pyridine], on RET wt, the half-maximal inhibitory concentration (IC50) was 0.2 nM and the “inhibitory activity on RET wt compared with cabozantinib” value was “significantly better than that of cabozantinib”. Further, at RET V804M, half-maximal inhibition (IC50) was put at 0.1 nM and the “inhibitory activity on RET V804M compared with cabozantinib” value is listed as “significantly better than that of cabozantinib”. For the same compound, on RET G810R, the IC50 came to 2.9 nM; the “inhibitory activity on RET G810R compared with cabozantinib and selpercatinib (LOXO-292)” value was “significantly better than that of cabozantinib and selpercatinib (LOXO-292)”. Moreover, in the test on TT Cell, the IC50 came out at 10.6 nM and the “inhibitory activity on TT cells compared with cabozantinib” value was “significantly better than that of cabozantinib”.
Take `COc1ccc(CN2C3CC2CN(c2ccc(-c4cc(OCC(C)C)cn5nc6[nH]ncc6c45)cn2)C3)cn1` [Compound 39, 6-isobutoxy-4-(6-(6-((6-methoxypyridin-3-yl)methyl)-3,6-diazabicyclo[3.3.1]heptan-3-yl)pyridin-3-yl)-1H-pyrazolo[3′,4′:3,4]pyrazolo[1,5-a]pyridine]: at RET wt, the IC50 came out at 0.4 nM and the “inhibitory activity on RET wt compared with cabozantinib” value is “significantly better than that of cabozantinib”. In addition, at RET V804M, the IC50 came out at 0.3 nM and the “inhibitory activity on RET V804M compared with cabozantinib” value is listed as “significantly better than that of cabozantinib”. At RET G810R, half-maximal inhibition (IC50) required 30.5 nM; the “inhibitory activity on RET G810R compared with cabozantinib and selpercatinib (LOXO-292)” value is “significantly better than that of cabozantinib and selpercatinib (LOXO-292)”. In addition, in the test with TT Cell, the IC50 stood at 12.3 nM and the “inhibitory activity on TT cells compared with cabozantinib” value was “significantly better than that of cabozantinib”.
As to `COc1ccc(CN2C3CC2CN(c2ccc(-c4cc(OCC(C)(C)O)cn5ncc(C#N)c45)cn2)C3)cn1` [Selpercatinib(LOXO-292), Selpercatinib, reference compound], in test [1], the “Tumor growth inhibition rate” value was 49%.

By IC50 is commonly meant the point on the concentration scale where inhibition reaches its midpoint.
